Results from paper PMC7736868, “Fluorescent ligands for dopamine D2/D3 receptors” (Scientific Reports, 2020).
Where two headings read alike, the source gives them in different places.

Key:
porcine D1R = target: T1, porcine D1R (Sus scrofa, UniProt P50130); assay: Radioligand competition, [3H]SCH23390, porcine striatum homogenates; type: binding; settings: [3H]SCH23,390; mean of n experiments; read-out: Ki pD1R
T1 construct: homogenates obtained from porcine striatum; from tissue; host or cells: porcine striatum homogenate

porcine 5-HT1AR = target: T2, porcine 5-HT1AR (Sus scrofa, UniProt A0A4X1UTF5); assay: Radioligand competition, [3H]WAY100,635, porcine cerebral cortex homogenates; type: binding; settings: mean of n experiments, read-out: Ki p5-HT1AR
T2 construct: homogenates of porcine cerebral cortex; from tissue; host or cells: porcine cerebral cortex homogenate
T2 sequence (A0A4X1UTF5 1-422): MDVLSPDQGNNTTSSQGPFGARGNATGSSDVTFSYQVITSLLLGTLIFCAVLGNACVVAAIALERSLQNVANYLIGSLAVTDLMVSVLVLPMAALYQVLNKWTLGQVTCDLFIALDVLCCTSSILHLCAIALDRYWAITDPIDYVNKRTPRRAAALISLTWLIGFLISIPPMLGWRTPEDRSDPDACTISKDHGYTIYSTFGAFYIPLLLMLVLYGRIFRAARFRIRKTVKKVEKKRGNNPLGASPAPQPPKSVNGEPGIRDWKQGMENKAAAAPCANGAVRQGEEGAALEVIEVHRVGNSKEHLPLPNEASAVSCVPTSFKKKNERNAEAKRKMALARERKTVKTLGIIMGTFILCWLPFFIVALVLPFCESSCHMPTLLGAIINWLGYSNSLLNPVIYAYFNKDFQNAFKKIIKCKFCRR

porcine 5-HT2R = target: T3, porcine 5-HT2R (Sus scrofa, UniProt P50129); assay: Radioligand competition, [3H]ketanserin, porcine cerebral cortex homogenates; type: binding; settings: mean of n experiments, read-out: Ki p5-HT2R
T3 construct: homogenates of porcine cerebral cortex; from tissue; host or cells: porcine cerebral cortex homogenate

human D2LR = human D2LR (Homo sapiens, UniProt P14416); assay: Radioligand competition, [3H]spiperone, CHO cell membranes
D2SR [1] = target: T4, D2SR (Homo sapiens, UniProt P14416); assay: as above
human D3R = human D3R (Homo sapiens, UniProt P35462); assay: as above
human D4R = target: T5, human D4R (Homo sapiens, UniProt P21917); assay: as above
T5 sequence (P21917 1-419): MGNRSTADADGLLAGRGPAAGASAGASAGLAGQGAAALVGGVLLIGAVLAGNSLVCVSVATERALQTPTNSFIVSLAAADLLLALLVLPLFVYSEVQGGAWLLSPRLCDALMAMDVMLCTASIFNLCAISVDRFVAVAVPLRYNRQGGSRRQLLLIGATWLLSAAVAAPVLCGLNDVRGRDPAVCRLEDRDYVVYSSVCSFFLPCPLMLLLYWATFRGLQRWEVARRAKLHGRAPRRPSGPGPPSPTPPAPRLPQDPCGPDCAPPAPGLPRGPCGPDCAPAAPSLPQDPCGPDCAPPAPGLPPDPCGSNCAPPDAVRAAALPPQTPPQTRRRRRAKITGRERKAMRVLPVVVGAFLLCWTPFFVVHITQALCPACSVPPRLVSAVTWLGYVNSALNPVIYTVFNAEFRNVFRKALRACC

porcine α1-AR = assay: Radioligand competition, [3H]prazosin, porcine cerebral cortex homogenates; settings: read-out: Ki pα1-AR, mean of n experiments
D2SR [2] = target: T4, D2SR; assay: β-arrestin-2 recruitment (Pathhunter, DiscoverX), HEK293 cells, GRK2 coexpressed; type: cell-based; design: expressed in transfected cells; settings: for Emax: read-out: Emax β-arrestin-2 recruitment at D2SR, reference agonist quinpirole
human isoform of D1R = human isoform of D1R (Homo sapiens, UniProt P21728); assay: Radioligand competition at human isoform of D1R; type: binding; settings: assay performed with human isoform of D1R; [3H]SCH23,390 column
Protocol: Supplementary Table S1. Binding affinities of the test compounds. Binding affinities of the test compounds for porcine D1R, 5-HT 1AR, 5-HT 2R and α1-AR were determined by radioligand […]
a Data are indicated as m ean (and range) of (n) individual experim ents, each per form ed in triplicate; b assay perform ed with hum an isoform of D1R; c n. d. K i not determ ined as no com plete ligand displacem ent occurred;

secNluc-D3R = secNluc-D3R (UniProt P35462+Q9GV45, A31E/A60N/A81I/F95D/I117V/K70R/L54V/L99Q/M102K/N193R/P142E/Q151K/Q38R/Q45L/V71I/Y165I); assay: NanoBRET association and dissociation kinetics, membranes; type: binding
Protocol: (a) Association of 10a at room temperature was measured by NanoBRET using secNluc-D3R membrane preparations and threefold serial dilutions of 10a (3.3–30 nM). […] Obtained IC50 values were transformed into Ki values applying the equation of Cheng and Prusoff[52]. […] Kinetic assays were monitored at room temperature and minimal possible cycle time of the CLARIOstar was used for each measurement. Data was fitted to one phase association and dissociation equations in PRISM6.0 to determine the kinetic constants. […] Addition of furimazine (1:5,000) and BRET measurements were carried out as described above. Data analysis was performed using the one site—fit Ki equation in PRISM6.0 to determine the inhibition constants (Ki) of the unlabeled ligands.

[3] = read-out: EC50 β-arrestin-2 recruitment at D2SR, mean ± SEM
[4] = read-out: Ki hD2LR, [3H]spiperone, mean ± SEM
[5] = read-out: Ki hD2SR, [3H]spiperone, mean ± SEM
[6] = read-out: Ki hD3R, [3H]spiperone, mean ± SEM
[7] = read-out: Ki hD4R, [3H]spiperone, mean ± SEM

Chain of human D3R (P35462 whole entry): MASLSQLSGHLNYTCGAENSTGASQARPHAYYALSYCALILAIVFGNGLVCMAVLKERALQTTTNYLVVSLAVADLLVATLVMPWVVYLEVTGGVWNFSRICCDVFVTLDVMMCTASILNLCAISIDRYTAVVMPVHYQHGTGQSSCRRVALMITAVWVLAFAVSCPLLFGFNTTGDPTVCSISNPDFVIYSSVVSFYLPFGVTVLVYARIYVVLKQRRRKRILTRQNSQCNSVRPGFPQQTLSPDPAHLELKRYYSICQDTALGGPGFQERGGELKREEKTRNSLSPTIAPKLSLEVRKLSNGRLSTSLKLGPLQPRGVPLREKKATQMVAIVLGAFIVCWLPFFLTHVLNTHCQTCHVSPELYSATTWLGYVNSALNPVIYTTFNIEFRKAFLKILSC
T4 sequence (P14416 1-414 isoform P14416-2): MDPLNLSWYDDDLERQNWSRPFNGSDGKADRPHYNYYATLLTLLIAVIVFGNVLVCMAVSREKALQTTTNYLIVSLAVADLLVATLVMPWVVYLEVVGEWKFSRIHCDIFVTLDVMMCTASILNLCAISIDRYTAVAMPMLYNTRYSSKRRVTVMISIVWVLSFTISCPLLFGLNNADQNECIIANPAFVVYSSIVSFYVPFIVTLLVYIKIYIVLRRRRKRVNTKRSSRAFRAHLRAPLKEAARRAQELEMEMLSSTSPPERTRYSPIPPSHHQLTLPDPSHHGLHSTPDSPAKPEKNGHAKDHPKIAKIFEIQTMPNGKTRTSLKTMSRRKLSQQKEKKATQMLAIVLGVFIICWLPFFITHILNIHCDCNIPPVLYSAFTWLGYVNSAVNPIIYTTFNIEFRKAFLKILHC
Chain of human D2LR (P14416 whole entry): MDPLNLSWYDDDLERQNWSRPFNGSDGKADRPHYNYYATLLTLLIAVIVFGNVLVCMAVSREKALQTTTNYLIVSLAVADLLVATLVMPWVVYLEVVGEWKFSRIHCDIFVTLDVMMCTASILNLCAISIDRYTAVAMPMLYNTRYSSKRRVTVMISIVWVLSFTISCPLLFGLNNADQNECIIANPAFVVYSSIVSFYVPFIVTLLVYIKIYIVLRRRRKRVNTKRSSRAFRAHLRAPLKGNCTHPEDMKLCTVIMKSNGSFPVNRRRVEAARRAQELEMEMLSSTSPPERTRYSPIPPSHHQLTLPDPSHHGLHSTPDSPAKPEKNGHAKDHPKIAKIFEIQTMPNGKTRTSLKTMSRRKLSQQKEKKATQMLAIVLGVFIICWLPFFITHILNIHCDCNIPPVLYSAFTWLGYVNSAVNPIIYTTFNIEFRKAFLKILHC
T1 sequence (P50130 whole entry): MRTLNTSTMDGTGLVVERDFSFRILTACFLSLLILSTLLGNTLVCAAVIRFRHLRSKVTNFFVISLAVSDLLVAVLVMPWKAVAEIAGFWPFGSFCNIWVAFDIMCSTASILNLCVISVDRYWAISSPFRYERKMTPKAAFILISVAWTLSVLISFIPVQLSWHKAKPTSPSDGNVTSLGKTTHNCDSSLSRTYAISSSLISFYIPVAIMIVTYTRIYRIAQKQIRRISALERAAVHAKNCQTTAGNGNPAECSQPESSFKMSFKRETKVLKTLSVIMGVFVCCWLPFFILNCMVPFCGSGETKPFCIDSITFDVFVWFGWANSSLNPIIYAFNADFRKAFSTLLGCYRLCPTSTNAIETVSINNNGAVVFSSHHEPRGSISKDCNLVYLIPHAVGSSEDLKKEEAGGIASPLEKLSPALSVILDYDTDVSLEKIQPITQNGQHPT
Chain of secNluc-D3R (Q9GV45+P35462 fused with the stated changes): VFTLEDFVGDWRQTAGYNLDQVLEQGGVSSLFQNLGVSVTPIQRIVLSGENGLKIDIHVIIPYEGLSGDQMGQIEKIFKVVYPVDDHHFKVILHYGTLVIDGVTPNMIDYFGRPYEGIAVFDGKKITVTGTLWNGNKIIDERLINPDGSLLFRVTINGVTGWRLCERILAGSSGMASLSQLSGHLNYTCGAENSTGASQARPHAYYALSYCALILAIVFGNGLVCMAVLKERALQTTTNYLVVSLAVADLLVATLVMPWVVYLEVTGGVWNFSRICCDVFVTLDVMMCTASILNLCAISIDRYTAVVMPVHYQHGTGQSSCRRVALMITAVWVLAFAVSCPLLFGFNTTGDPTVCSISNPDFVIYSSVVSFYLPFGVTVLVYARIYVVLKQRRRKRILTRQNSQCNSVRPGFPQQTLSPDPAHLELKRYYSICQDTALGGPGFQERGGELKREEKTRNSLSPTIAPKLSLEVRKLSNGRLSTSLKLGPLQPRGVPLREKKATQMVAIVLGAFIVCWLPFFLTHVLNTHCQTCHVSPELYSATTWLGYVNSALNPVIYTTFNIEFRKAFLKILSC
T3 sequence (P50129 whole entry): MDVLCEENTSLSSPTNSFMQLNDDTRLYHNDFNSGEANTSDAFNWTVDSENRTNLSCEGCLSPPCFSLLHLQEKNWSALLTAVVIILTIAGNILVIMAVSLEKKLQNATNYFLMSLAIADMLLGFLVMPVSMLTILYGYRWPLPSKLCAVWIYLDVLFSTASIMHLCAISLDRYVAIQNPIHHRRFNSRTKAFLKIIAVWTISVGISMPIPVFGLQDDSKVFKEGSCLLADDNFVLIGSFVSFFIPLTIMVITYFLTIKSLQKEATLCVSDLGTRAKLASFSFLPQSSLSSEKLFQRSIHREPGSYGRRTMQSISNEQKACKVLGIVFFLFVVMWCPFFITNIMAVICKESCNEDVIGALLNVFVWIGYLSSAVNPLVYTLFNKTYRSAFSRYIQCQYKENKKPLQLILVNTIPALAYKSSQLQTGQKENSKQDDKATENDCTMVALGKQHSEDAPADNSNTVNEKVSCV
Chain of human isoform of D1R (P21728 whole entry, canonical isoform): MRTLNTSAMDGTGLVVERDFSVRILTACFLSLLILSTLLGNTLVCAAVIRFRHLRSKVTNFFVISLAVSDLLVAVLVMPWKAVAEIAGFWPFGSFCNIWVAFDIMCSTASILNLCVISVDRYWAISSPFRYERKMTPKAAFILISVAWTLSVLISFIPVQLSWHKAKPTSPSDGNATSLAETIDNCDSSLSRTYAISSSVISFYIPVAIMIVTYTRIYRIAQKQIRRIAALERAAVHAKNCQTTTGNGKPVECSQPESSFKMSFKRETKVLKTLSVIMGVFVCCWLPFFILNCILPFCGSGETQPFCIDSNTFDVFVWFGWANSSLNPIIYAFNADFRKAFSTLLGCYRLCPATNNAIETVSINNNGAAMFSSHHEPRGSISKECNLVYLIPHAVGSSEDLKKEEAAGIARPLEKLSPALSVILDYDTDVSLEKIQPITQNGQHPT

SMILES | Ki (porcine D1R) [nM] | Ki (porcine 5-HT1AR) [nM] | Ki (porcine 5-HT2R) [nM] | Ki (human D2LR) [nM] | Ki (D2SR [1]) [nM] | Ki (human D3R) [nM] | Ki (human D4R) [nM] | Ki (porcine α1-AR) [nM] | further results
CCCN(CCCCc1cn(-c2ccc(C#N)cc2)nn1)C1Cc2ccccc2C1 [2a] | 3000 | 52 | 850 | 8.7 ± 2.5 | 6.5 ± 1.7 | 0.41 ± 0.09 | 33 ± 7 | 87 | –
N#Cc1ccc(-n2cc(CCCCN3CCN(c4cccc(Cl)c4Cl)CC3)nn2)cc1 [2b] | 540 | 260 | 1100 | 15 ± 5 | 6.3 ± 0.2 | 1 ± 0.2 | 120 ± 61 | 4.9 | –
COc1ccccc1N1CCN(CCCCc2cn(-c3ccc(C#N)cc3)nn2)CC1 [2c] | 1100 | 25 | 600 | 77 ± 17 | 34 ± 8 | 13 ± 4 | 140 ± 10 | 2.4 | –
CC(C)(C)c1nc(N2CCN(CCCCc3cn(-c4ccc(C#N)cc4)nn3)CC2)cc(C(F)(F)F)n1 [2d] | 5500 | 4100 | 4400 | 360 ± 60 | 350 ± 30 | 9.5 ± 1.9 | 5000 | 1100 | –
CCCN(CCCCc1cn(-c2ccc(CNS(=O)(=O)c3cccc4c(N(C)C)cccc34)cc2)nn1)C1Cc2ccccc2C1 [4a] | 590 | 27 | 220 | 5.2 ± 0.6 | 1.7 ± 0.3 | 0.29 ± 0.02 | 27 ± 3 | 29 | –
CN(C)c1cccc2c(S(=O)(=O)NCc3ccc(-n4cc(CCCCN5CCN(c6cccc(Cl)c6Cl)CC5)nn4)cc3)cccc12 [4b] | 190 | 78 | 390 | 20 ± 8 | 5.1 ± 1.7 | 1.9 ± 0.7 | 59 ± 20 | 7.9 | –
COc1ccccc1N1CCN(CCCCc2cn(-c3ccc(CNS(=O)(=O)c4cccc5c(N(C)C)cccc45)cc3)nn2)CC1 [4c] | 180 | 55 | 450 | 17 ± 7 | 8.4 ± 3.4 | 6.5 ± 2.3 | 32 ± 6 | 1.1 | –
CN(C)c1cccc2c(S(=O)(=O)NCc3ccc(-n4cc(CCCCN5CCN(c6cc(C(F)(F)F)nc(C(C)(C)C)n6)CC5)nn4)cc3)cccc12 [4d] | > 10000 | > 10000 | > 10000 | 7600 | 6000 | 11 ± 2 | > 10000 | 3000 | decrease of D2LR affinity by introduction of the dansyl moiety (factor) (human D2LR; 4d versus 2d): ~ 20; decrease of D2SR affinity by introduction of the dansyl moiety (factor) (D2SR [1]; 4d versus 2d): ~ 20
CCCN(CCCCc1cn(-c2ccc(C(=O)NCCCN)cc2)nn1)C1Cc2ccccc2C1 [7a] | 3600 | 13 | 400 | 3.5 ± 0.4 | 1.8 ± 0.2 | 0.26 ± 0.03 | 8.5 ± 0.8 | 37 | –
CCCN(CCCCc1cn(-c2ccc(C(=O)NCCCNS(=O)(=O)c3cccc4c(N(C)C)cccc34)cc2)nn1)C1Cc2ccccc2C1 [8a] | 1100 | 70 | 690 | 1.2 ± 0.2 | 0.44 ± 0.12 | 0.32 ± 0.05 | 10 ± 4 | 22 | EC50 (D2SR [2]; mean ± SEM): 51 ± 11 nM; Emax (D2SR [2]): 98 ± 2%
CN(C)c1cccc2c(S(=O)(=O)NCCCNC(=O)c3ccc(-n4cc(CCCCN5CCN(c6cccc(Cl)c6Cl)CC5)nn4)cc3)cccc12 [8b] | 340 | 170 | 380 | 13 ± 6 | 3.6 ± 1.6 | 1.9 ± 0.9 | 130 ± 10 | 23 | –
CCCN(CCCCc1cn(-c2ccc(CNC(=O)c3ccc(-c4c5ccc(=NCC(F)(F)F)cc-5oc5cc(NCC(F)(F)F)ccc45)c(C(=O)O)c3)cc2)nn1)C1Cc2ccccc2C1 [10a] | – | – | – | 46 ± 7 | 21 ± 4 | 0.97 ± 0.23 | 56 ± 4 | 100 | Ki (human isoform of D1R): 310 nM; koff (secNluc-D3R): 0.0009 s⁻¹; residence time (secNluc-D3R): 19 ± 1 min; kon (secNluc-D3R; read-out: Kon association rate constant): 170000 M⁻¹ s⁻¹; EC50 (D2SR [2]; mean ± SEM): 410 ± 70 nM; Emax (D2SR [2]): 89 ± 3%
CCCN(CCCCc1cn(-c2ccc(C(=O)NCCCNC(=O)Cc3ccc4c(c3)C(C)(C)C3=C5C=C6C7=[N+](CCC6OC5CCN34)c3ccc(S(=O)(=O)[O-])cc3C7(C)C)cc2)nn1)C1Cc2ccccc2C1 (stereo not drawn) [10b] | 5100 | 120 | 330 | – | – | – | – | 87 | EC50 (D2SR [2]; [3]): 410 ± 60 nM; Emax (D2SR [2]): 79 ± 3%; Ki (human D2LR; [4]): 10 ± 2 nM; Ki (D2SR [1]; [5]): 4.8 ± 1 nM; Ki (human D3R; [6]): 0.9 ± 0.26 nM; Ki (human D4R; [7]): 50 ± 7 nM
CCCN(CCCCc1cn(-c2ccc(C(=O)NCCCNC(=O)c3ccc(-c4c5ccc(=N)c(S(=O)(=O)O)c-5oc5c(S(=O)(=O)O)c(N)ccc45)c(C(=O)O)c3)cc2)nn1)C1Cc2ccccc2C1 [10c] | 5100 | 85 | 2200 | – | – | – | – | 150 | EC50 (D2SR [2]; [3]): 100 ± 20 nM; Emax (D2SR [2]): 93 ± 3%; Ki (human D2LR; [4]): 23 ± 5 nM; Ki (D2SR [1]; [5]): 15 ± 4 nM; Ki (human D3R; [6]): 0.76 ± 0.11 nM; Ki (human D4R; [7]): 47 ± 9 nM
